These results are taken from patent US7595395B2, “Gabaergic agents to treat memory deficits” (priority 2005, dated 2009).

Read-outs that look alike come from different tables or passages of the source.

The test system of experiment [1] is alcohol preferring rats (P) and high alcohol drinking rats (HAD). Particulars: cited from earlier work.
The target in the next experiment is GABAA/α1 receptors (Homo sapiens, UniProt P14867+P18507). Particulars: Huang et al. 2000; cited from earlier work.
In experiment [2] the target is α6β3γ2 benzodiazepine receptor GABA(A) isoform (UniProt P18507+Q16445). The experiment can be described thus: Radioligand competition binding, α6β3γ2 BzR/GABA(A) isoform. Also on record: species or system human and rat. Particulars: means of two determinations, read-out: Ki α6. How it is done:
(§1) The affinity of all ligands at the 6 major recombinant GABAA/BzR subtypes was measured by competition for [^3H]Ro15-1788 binding to HEK-T cells expressing both human and rat GABAA/Bz receptors of composition α1β2γ2 (α1), α2β2γ2 (α2), α3β2γ2 (α3), α4β2γ2 (α4), α5β2γ2 (α5) and α6β2γ2 (α6). It is well known that the β2 and β3 subunits can be interchanged with no effect on Bz ligand affinity or efficacy. […] These studies are similar to those performed in the laboratory of Bryan Roth who has already expressed the receptors employing the work of Kucken et. al. and Gray et. al.
(§2) In brief, for membrane preparations, the cells were scraped on to the ice and diluted into 5 mL of phosphate buffered saline (pH=7.40) and cells pelleted by centrifugation for 5 min. at 4° C. The pellet was resuspended in 1 mL of 50 mM Tris-acetate buffer (pH 7.4) and centrifuged at 18,000 g for 20 min. […] Each pellet were diluted to 6 mL and then 100 μL of membranes were incubated with approximately 1 nM final concentration of [^3H]Ro 15-1788 in a total volume of 250 μL together with serial dilutions of test compound for 90 min. on ice. The membranes were harvested in polyethyleneimine-pretreated Whatman GF/C filters and after drying and addition of scintillation cocktail, counted in a scintillation counter. The cpm retained on the filters was plotted against log concentration (M) and fitted to one site competition equation to obtain the Ki using Graphpad Prizm (V4.0) using the Cheng-Prusoff approximation.

In experiment [3] the target is T1, α3β3γ2 benzodiazepine receptor GABA(A) isoform (UniProt P18507+P34903).
T1 sequence (P18507 1-475): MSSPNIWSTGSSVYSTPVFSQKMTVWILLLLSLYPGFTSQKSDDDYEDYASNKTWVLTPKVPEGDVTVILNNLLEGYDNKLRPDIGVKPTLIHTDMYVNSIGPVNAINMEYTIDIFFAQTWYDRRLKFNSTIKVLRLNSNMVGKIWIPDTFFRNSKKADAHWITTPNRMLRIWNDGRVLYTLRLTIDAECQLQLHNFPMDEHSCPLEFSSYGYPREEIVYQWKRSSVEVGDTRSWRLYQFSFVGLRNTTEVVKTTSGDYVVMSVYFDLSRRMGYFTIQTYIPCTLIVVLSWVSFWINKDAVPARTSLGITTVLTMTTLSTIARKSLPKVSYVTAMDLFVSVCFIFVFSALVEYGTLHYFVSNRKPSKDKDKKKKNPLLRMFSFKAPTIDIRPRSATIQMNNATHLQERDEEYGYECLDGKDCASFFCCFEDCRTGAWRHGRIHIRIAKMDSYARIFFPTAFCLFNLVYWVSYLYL
T1 sequence (P34903 1-492): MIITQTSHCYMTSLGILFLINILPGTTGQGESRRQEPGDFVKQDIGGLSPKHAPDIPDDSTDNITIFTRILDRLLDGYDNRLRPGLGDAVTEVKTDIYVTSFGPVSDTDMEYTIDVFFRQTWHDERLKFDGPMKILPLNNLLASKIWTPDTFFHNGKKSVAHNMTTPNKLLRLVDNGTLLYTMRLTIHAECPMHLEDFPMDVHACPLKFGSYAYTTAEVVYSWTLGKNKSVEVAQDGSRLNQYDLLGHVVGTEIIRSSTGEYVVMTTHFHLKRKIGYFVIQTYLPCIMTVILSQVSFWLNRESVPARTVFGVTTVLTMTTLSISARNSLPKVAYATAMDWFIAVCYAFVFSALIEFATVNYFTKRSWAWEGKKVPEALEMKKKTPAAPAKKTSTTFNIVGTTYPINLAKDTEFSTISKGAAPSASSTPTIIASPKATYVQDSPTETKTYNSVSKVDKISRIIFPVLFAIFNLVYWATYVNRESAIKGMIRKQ
Briefly: Radioligand competition binding, α3β3γ2 BzR/GABA(A) isoform. Details: species or system human and rat. Conditions: means of two determinations, read-out: Ki α3. As for the experimental part:
as §1, §2

Experiment [4] concerns the target T2, α5β3γ2 benzodiazepine receptor GABA(A) isoform (UniProt P18507+P31644).
T2 sequence (P18507 1-475): T1 sequence (P18507 1-475)
T2 sequence (P31644 1-462): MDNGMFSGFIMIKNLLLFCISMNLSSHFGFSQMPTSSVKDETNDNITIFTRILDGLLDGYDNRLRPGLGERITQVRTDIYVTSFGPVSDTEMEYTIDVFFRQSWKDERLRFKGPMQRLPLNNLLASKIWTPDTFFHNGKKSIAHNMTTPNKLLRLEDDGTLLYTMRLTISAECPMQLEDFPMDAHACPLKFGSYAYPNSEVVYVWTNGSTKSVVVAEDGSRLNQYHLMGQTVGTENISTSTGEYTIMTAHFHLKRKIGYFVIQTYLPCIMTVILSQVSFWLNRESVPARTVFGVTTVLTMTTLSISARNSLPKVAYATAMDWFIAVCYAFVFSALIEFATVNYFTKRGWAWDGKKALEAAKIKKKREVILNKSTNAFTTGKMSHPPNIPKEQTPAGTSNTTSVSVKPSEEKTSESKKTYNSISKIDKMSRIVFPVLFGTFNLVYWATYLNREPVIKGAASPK
Briefly: Radioligand competition binding, α5β3γ2 BzR/GABA(A) isoform. Also on record: Ki α5; means of two determinations; Ki α5; α5; other: text; species or system human and rat.

Experiment [5] has as its target T3, α1β3γ2 benzodiazepine receptor GABA(A) isoform (UniProt P14867+P18507).
T3 sequence (P14867 1-456): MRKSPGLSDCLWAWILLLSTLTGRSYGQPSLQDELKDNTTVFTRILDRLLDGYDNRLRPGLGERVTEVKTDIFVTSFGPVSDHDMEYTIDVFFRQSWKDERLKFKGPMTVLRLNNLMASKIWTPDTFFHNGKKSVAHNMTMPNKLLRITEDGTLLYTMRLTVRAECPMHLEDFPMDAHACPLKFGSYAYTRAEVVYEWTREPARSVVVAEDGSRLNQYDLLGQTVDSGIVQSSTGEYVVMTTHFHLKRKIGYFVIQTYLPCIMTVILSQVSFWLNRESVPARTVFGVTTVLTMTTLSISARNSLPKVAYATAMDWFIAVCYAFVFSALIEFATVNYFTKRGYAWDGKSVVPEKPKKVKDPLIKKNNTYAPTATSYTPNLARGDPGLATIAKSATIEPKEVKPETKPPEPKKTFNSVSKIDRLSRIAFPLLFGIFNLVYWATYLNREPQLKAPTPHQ
T3 sequence (P18507 1-475): T1 sequence (P18507 1-475)
The experiment can be described thus: Radioligand competition binding, α1β3γ2 BzR/GABA(A) isoform. Details: Ki α1; means of two determinations; Ki α1; α1; species or system human and rat. Particulars: means of two determinations, read-out: Ki α1. As for the experimental part: as §1, §2

Experiment [6] addresses T4, α2β3γ2 benzodiazepine receptor GABA(A) isoform (UniProt P18507+P47869).
T4 sequence (P18507 1-475): T1 sequence (P18507 1-475)
T4 sequence (P47869 1-451): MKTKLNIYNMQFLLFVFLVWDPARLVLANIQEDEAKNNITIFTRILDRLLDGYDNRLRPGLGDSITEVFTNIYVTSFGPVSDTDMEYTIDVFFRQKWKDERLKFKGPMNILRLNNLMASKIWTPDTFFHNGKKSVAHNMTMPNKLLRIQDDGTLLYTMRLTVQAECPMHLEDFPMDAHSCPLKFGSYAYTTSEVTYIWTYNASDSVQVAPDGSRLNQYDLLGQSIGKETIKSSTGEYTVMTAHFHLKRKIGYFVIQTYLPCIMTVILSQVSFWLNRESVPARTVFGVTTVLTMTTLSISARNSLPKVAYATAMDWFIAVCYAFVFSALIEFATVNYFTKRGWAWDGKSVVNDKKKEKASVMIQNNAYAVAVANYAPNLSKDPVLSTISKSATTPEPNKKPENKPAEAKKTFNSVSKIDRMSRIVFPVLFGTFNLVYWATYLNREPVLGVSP
Briefly: Radioligand competition binding, α2β3γ2 BzR/GABA(A) isoform. Details: species or system human and rat. Particulars: means of two determinations, read-out: Ki α2. As for the experimental part:
as §1, §2

Where [7] appears, read: read-out: Ki α5; Table I; means of two determinations.
Where [8] appears, read: Table 2; means of two determinations; read-out: Ki α5.
Where [9] appears, read: read-out: Ki α5; Table 2; means of two determinations.

Chain of GABAA/α1 receptors (P28472 26-473 partner, one chain of several): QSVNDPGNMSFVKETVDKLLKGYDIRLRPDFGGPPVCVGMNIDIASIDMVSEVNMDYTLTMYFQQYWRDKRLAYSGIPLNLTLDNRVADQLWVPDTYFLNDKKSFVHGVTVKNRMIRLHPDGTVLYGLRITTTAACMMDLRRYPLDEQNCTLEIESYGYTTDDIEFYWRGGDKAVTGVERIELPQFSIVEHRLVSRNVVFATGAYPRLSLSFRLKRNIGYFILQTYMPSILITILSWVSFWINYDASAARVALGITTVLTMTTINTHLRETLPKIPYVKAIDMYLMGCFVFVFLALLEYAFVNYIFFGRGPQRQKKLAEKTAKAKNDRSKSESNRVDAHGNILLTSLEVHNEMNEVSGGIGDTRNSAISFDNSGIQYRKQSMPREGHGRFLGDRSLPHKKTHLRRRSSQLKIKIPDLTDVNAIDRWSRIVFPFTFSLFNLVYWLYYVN

Turning to `CC(C)(C)OC(=O)c1cc2c(cn1)[nH]c1ccccc12` [BCCt, β-carboline-3-carboxylate-tbutyl ester], the “alcohol self administration (in words)” value in experiment [1] (P and HAD rats, June et al. 2003, Foster et al. 2004) is on record as “potently reduced alcohol self administration”. Further, the “anxiolytic activity (in words)” value in experiment [1] (P and HAD rats) was “exhibits anxiolytic activity”. Moreover, the “sedative-hypnotic effects of alcohol (in words)” value in experiment [1] (P rats and HAD rats) was “antagonized the sedative-hypnotic effects of alcohol”. At GABAA/α1 receptors, the “selectivity for α1 over other BzR subtypes” value was 20 fold.

For `CN1Cc2c(CCl)ncn2-c2ccc(Cl)cc2C1=O` [Ligand 12b], the Ki was more than 300 nM in experiment [2] (Table I); more than 300 nM in experiment [3] (Table I); 28.5 nM in experiment [4] (setting [7]); more than 300 nM in experiment [5] (Table I); more than 300 nM in experiment [6] (Table I).

Take `CCOCc1ncn2c1CN(C)C(=O)c1cc(Cl)ccc1-2` [Ligand 12c]: the Ki was more than 300 nM in experiment [2] (Table I); more than 300 nM in experiment [3] (Table I); 82.7 nM in experiment [4] (setting [7]); more than 300 nM in experiment [5] (Table I); more than 300 nM in experiment [6] (Table I).

Regarding `C#CC#Cc1ccc2c(c1)C(=O)N1CCC[C@H]1c1c(C(=O)OCC)ncn1-2` [Ligand 14], the Ki in experiment [4] (setting [7]) came to 64 nM.

In the case of `CCOC(=O)c1ncoc1-c1ncn2c1[C@@H]1CCN1C(=O)c1cc(Br)ccc1-2` [RY062], the Ki in experiment [2] (Table 2) is more than 2000 nM; in experiment [3] (Table 2) it was more than 500 nM; in experiment [4] (setting [8]) it was 172 nM; in experiment [5] (Table 2), more than 1000 nM; in experiment [6] (Table 2), more than 1000 nM.

Regarding `CCOC(=O)c1ncoc1-c1ncn2c1[C@@H]1CCN1C(=O)c1cc(C#C[Si](C)(C)C)ccc1-2` [RY068], the Ki in experiment [2] (Table 2) was more than 1000 nM; in experiment [3] (Table 2), 496 nM; in experiment [4] (setting [9]), 37 nM; in experiment [5] (Table 2), more than 500 nM; in experiment [6] (Table 2) it was 877 nM.

Take `C#Cc1ccc2c(c1)C(=O)N1CC[C@H]1c1c(-c3ocnc3C(=O)OCC)ncn1-2` [RY069]: the Ki was more than 1000 nM in experiment [2] (Table 2); 506 nM in experiment [3] (Table 2); 19 nM in experiment [4] (setting [9]); 692 nM in experiment [5] (Table 2); 622 nM in experiment [6] (Table 2).

Turning to `C#Cc1ccc2c(c1)C(=O)N1CC[C@@H]1c1c(-c3nc(C)no3)ncn1-2` [RY-I-29], the Ki in experiment [2] (Table 2) is more than 1000 nM; in experiment [2] (Table I), more than 1000 nM; in experiment [3] (Table 2), more than 1000 nM; in experiment [3] (Table I) it was more than 1000 nM; in experiment [4] (setting [8]), 157 nM; in experiment [4] (Table I; means of two determinations; read-out: Ki α5), 157 nM. Also, the Ki in experiment [5] (Table 2), in experiment [5] (Table I), in experiment [6] (Table 2) and in experiment [6] (Table I) was more than 1000 nM in each case.
